Experiments:
[1] = tested on: CCNK; experiment: Immunoblotting of CCNK in MDA-MB-231 cells; type: cell-based, human; conditions: MDA-MB-231, increasing concentrations, 15 h
Protocol: The global proteomic selectivity of ZLC491 was investigated by using the tandem mass tag (TMT) labeled mass-spectrometry. […] CDK13 was not detected in either degrader treatment groups or DMSO control groups, likely due to its insufficient cellular expression for mass spectrometry detection.
Generally, the tested cells were washed by ice-cold PBS buffer (Gibco) and lysed with an SDS lysis buffer (62.5 mM Tris, 2% w/v SDS, 10 glycerol, 50 mM DTT, 0.01% w/v bromophenol blue) on ice, after which the protein lysate samples were collected to 1.5 mL microcentrifuge tubes and treated with ultrasonic for 10 s, following with a 100 °C incubation for 10 min and a 4 °C centrifugation of 12000 rpm for 10 min. An equal amount of protein was loaded to 4–8% Bis-Tris gels and underwent an SDS-PAGE electrophoresis at 55V for 30 min and 95V for 90 min. Proteins on gels were then transferred to a polyvinylidene difluoride (PVDF) membrane (Bio-Rad) with a wet electro transfer system (Bio-Rad). The PVDF membrane was cut into bands and incubated in a blocking reagent (5% defatted milk powder dissolved in TBST) at room temperature for 1–2 h. Incubate membrane and primary antibody (at the appropriate dilution and diluent as recommended in the product webpage) at 4 °C for 12–14 h, followed with three times washes by TBST. […]

[2] = Tolerability and body weight in MDA-MB-231 xenografted mice; type: in vivo; conditions: 100 and 200 mg/kg orally, 5 days
Protocol: We further performed pharmacodynamic studies of ZLC491 in an MDA-MB-231 xenografted mouse model. ZLC491 was orally administrated at two doses of 100 and 200 mg/kg, respectively, for 5 consecutive days (Figure 7A). Tumor tissues were harvested on day 5 and subjected to Western blot analysis. […] Additionally, we conducted further histological analysis on the tumors following ZLC491 treatment.
Figure 7 ZLC491 depleted CDK12 and CDK13 proteins in vivo. (A) Study design of pharmacodynamics assessment on target engagement of ZLC491 in the MDA-MB-231 xenograft model; (B) immunoblotting of CDK12, CDK13, and α-tubulin in tissue lysate of MDA-MB-231 xenografts model after ZLC491 treatment; (C) protein levels were quantified using ImageJ and normalized to corresponding α-tubulin, then plotted using GraphPad Prism 8.0; (D) immunohistochemistry (IHC) analysis on the tumors by H&E staining and TUNEL assays; (E) TUNEL histology scores were analyzed and plotted by GraphPad Prism 8.0; (F) body weight change during the treatment.
The pharmacodynamics experiments were performed under an approved animal protocol by the Institutional Animal Care & Use Committee of the University of Michigan. Six- to eight-week-old CB17SCID female (Charles River Laboratory) mice were in a regular SPF housing room prior to cell injection. […]

## N#Cc1ccc(N[C@H]2CC[C@H](N(C(=O)NCc3ccccc3)c3ccc(N4CCN(C5CCN(c6cc7c(cc6F)C(=O)N(C6CCC(=O)NC6=O)C7=O)CC5)CC4)cc3)CC2)nc1 (stereo partly drawn) [ZLC491, 3-Benzyl-1-((1r,4r)-4-((5-cyanopyridin-2-yl)amino)cyclohexyl)-1-(4-(4-(1-(2-(2,6-dioxopiperidin-3-yl)-6-fluoro-1,3-dioxoisoindolin-5-yl)piperidin-4-yl)piperazin-1-yl)phenyl)urea]
[1]
  CCNK degradation by Western blotting: dose-dependently degraded
[2]
  body weight change during the treatment: absence of body weight loss
  tolerability: well tolerated
